Laboratory results published in patent US12304938B2, “Processes and intermediates for preparing tirzepatide” (Eli Lilly and Company, priority 2022, dated 2025).
Peptide text beside a SMILES is read from it. * marks the point of attachment. Fmoc = O=C(OCC1c2ccccc2-c2ccccc21)*; tBu = CC(C)(C)*

Test: Physical stability of solid form on isolation/drying (crystallization screen)
Type: physicochemical
Conditions: wet solids from 1:1 v/v ACN/MTBE slurry, upon isolation/drying
Method: A crystallization screen was performed on Fmoc-G-P-S(tBu)-S(tBu)-G-OH (SEQ ID NO: 19) free form using various solvents and solvent mixtures. Different crystallization methods were employed including solvent-based techniques such as slurry, cooling, ambient and sub-ambient temperatures holding, solvent/anti-solvent addition, or combination of techniques, and non-solvent-based techniques such as heat stress.
Three solid forms were identified: Fmoc-G-P-S(tBu)-S(tBu)-G-OH (SEQ ID NO: 19) Form A, Fmoc-G-P-S(tBu)-S(tBu)-G-OH (SEQ ID NO: 19) Form C, and Fmoc-G-P-S(tBu)-S(tBu)-G-OH (SEQ ID NO: 19) Form D. Form A was a solvated form produced from 1-propanol (1-PrOH) or mixtures containing 1-PrOH (such as 1-PrOH/heptane). Form D is a solvated form produced from acetonitrile (ACN) or mixtures containing ACN (such as ACN/MTBE). Form C is a conversion product when Form D is isolated and dried.
The suspension was seeded with Fmoc-G-P-S(tBu)-S(tBu)-G-OH (SEQ ID NO: 19) Form C and then left at ambient conditions to continue stirring for 2 days.

CC(C)(C)OC[C@H](NC(=O)[C@H](COC(C)(C)C)NC(=O)[C@@H]1CCCN1C(=O)CNC(=O)OCC1c2ccccc2-c2ccccc21)C(=O)NCC(=O)O [Fmoc-Gly-Pro-Ser(tBu)-Ser(tBu)-Gly-OH] (Fmoc-GPS(tBu)S(tBu)G-OH)
physical stability of solid form: physically not stable
